Measurements: US7517857B2, “Immune-modulating peptide” (POSCO, priority 2002, dated 2009)
Where a SMILES comes first, the peptide text is derived from it. Where no end group is shown, it is not given here. [ ]: non-standard residue; d: D form.

What was measured:
Assay type in all cases: cell-based
FPRL1 = biological target: T1, FPRL1 (Homo sapiens, UniProt P25090); experiment: [Ca2+]i increase in FPRL1-expressing RBL-2H3 cells (fura-2); conditions: for EC50: fura-2 loaded, read-out: EC50 (nM), intracellular calcium increase
T1 construct: expressed in transfected cells; host or cells: RBL-2H3 (rat basophilic leukemia) cells, G418-selected
T1 sequence (P25090 1-351): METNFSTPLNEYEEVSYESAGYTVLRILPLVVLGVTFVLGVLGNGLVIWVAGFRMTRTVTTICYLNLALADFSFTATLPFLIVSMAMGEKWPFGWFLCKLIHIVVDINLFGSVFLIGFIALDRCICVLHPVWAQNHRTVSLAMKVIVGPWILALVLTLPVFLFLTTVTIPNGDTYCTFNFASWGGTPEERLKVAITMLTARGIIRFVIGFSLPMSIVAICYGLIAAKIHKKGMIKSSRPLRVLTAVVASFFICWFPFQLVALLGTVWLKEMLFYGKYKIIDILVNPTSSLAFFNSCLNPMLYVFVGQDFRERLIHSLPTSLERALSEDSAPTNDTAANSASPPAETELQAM
Description: […] The level of [Ca^2+]i was determined fluorometrically by Grynkiewicz's method using fura-2/AM (15). Briefly, prepared cells were incubated with 3 μM fura-2/AM at 37° C. for 50 min in a fresh serum-free RPMI 1640 medium under continuous stirring. 2×10^6 cells were aliquoted for each assay in Ca^2+-free Locke's solution (154 mM NaCl, 5.6 mM KCl, 1.2 mM MgCl2, 5 mM HEPES, pH 7.3, 10 mM glucose, and 0.2 mM EGTA). Fluorescence changes at the dual excitation wavelengths of 340 nm and 380 nm and the emission wavelength of 500 nm were measured, and the calibrated fluorescence ratio was translated into [Ca^2+]i. The peak level of the increased [Ca^2+]i was monitored.
[…] The level of [Ca^2+]i was determined by the same procedures as above. The peak level of the increased [Ca^2+]i was monitored.

FPR = biological target: T2, FPR (Homo sapiens, UniProt P21462); experiment: [Ca2+]i increase in FPR-expressing RBL-2H3 cells (fura-2); conditions: for EC50 (nM), intracellular calcium increase / EC50: fura-2 loaded; for EC50: read-out: EC50 (nM), intracellular calcium increase
T2 construct: expressed in transfected cells; host or cells: RBL-2H3 (rat basophilic leukemia) cells, G418-selected
T2 sequence (P21462 1-350): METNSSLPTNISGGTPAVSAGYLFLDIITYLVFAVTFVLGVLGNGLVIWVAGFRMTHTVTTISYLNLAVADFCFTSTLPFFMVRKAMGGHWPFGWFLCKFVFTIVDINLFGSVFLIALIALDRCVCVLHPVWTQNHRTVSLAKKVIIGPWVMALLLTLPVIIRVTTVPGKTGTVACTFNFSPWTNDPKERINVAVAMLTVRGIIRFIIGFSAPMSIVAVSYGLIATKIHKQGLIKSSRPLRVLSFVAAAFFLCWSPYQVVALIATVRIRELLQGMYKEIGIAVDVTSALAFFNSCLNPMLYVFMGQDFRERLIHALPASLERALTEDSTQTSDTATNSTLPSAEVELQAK
Description: FPR-expressing RBL-2H3 cells were stimulated with 10 μM of each peptide, and [Ca^2+]i was determined. The level of [Ca^2+]i was determined fluorometrically by Grynkiewicz's method using fura-2/AM (15). Briefly, prepared cells were incubated with 3 μM fura-2/AM at 37° C. for 50 min in a fresh serum-free RPMI 1640 medium under continuous stirring. 2×10^6 cells were aliquoted for each assay in Ca^2+-free Locke's solution (154 mM NaCl, 5.6 mM KCl, 1.2 mM MgCl2, 5 mM HEPES, pH 7.3, 10 mM glucose, and 0.2 mM EGTA). Fluorescence changes at the dual excitation wavelengths of 340 nm and 380 nm and the emission wavelength of 500 nm were measured, and the calibrated fluorescence ratio was translated into [Ca^2+]i. The peak level of the increased [Ca^2+]i was monitored.

human neutrophils = experiment: Superoxide generation in human neutrophils (cytochrome c reduction); conditions: for superoxide generating activity: 100 nM of peptides; for O^2− (nmol/10^6 cells), superoxide generation: cytochrome c reduction; for superoxide generation: 10 μM concentration
Description: Peripheral blood leukocyte concentrates were donated by the Ulsan Red Cross Blood Center (Ulsan, Korea). Human neutrophils were isolated according to the standard procedures of dextran sedimentation, hypotonic lysis of erythrocytes, and a lymphocyte separation medium gradient as described above (9). The isolated human neutrophils were then used promptly.
The activity of the peptides, WKYMVm, peptides of SEQ ID NOs: 1 to 24, and wkymvm on superoxide generation in human neutrophils was measured. Superoxide anion generation was quantified by measuring reduction of cytochrome c using a microtiter 96-well plate ELISA reader (Bio-Tekinstruments, EL312e, Winooski, Vt.) as described (14). The human neutrophils (1×10^6 cells/100 μl of RPMI 1640 medium per well of a 96-well plate) were preincubated with 50 μM cytochrome c at 37° C. for 1 min and then incubated with the indicated concentrations of peptides. The superoxide generation was measured as a change in light absorption at 550 nm over 5 minutes at 1 min intervals. From at least four independent experiments, peptides with active amino acids at each position were chosen.

Row | Compound | EC50 (nM), intracellular calcium increase (FPR) | O^2− (nmol/10^6 cells), superoxide generation (human neutrophils; peptide 100 nM) | O^2− (nmol/10^6 cells), superoxide generation (human neutrophils; peptide 10 μM) | also measured
1 | CSCC[C@H](NC(=O)[C@H](Cc1ccc(O)cc1)NC(=O)[C@@H](N)CCCCN)C(=O)N[C@H](C(N)=O)C(C)C [KYMV-NH2, Lys-Tyr-Met-Val-NH2] (H-KYMV-NH2) | inactive | – | – | EC50 (FPRL1): > 30000 nM
2 | CSCC[C@H](NC(=O)[C@H](Cc1ccc(O)cc1)NC(=O)[C@@H](N)CCCCN)C(=O)N[C@H](C(=O)N[C@H](CCSC)C(N)=O)C(C)C [KYMVm-NH2, Lys-Tyr-Met-Val-D-Met-NH2] | – | 36.0 ± 3.56 nmol/10^6 cells | 49.2 ± 5.82 nmol/10^6 cells | superoxide generating activity (human neutrophils): stimulated superoxide generation
3 | CSCC[C@H](N)C(=O)N[C@H](C(=O)N[C@H](CCSC)C(N)=O)C(C)C [MVm-NH2, Met-Val-D-Met-NH2] (H-Met-Val-[dM]-NH2) | inactive | – | – | EC50 (FPRL1): > 30000 nM
4 | CSCC[C@H](NC(=O)[C@H](Cc1ccc(O)cc1)NC(=O)[C@H](CC(=O)O)NC(=O)[C@@H](N)Cc1c[nH]c2ccccc12)C(=O)N[C@H](C(=O)N[C@H](CCSC)C(N)=O)C(C)C [WDYMVm-NH2, Trp-Asp-Tyr-Met-Val-D-Met-NH2] (H-WDYMV[dM]-NH2; N-terminus assumed) | – | 25.8 ± 6.56 nmol/10^6 cells | 37.3 ± 5.66 nmol/10^6 cells | –
5 | CSCC[C@H](NC(=O)[C@H](Cc1ccc(O)cc1)NC(=O)[C@H](CCC(=O)O)NC(=O)[C@@H](N)Cc1c[nH]c2ccccc12)C(=O)N[C@H](C(=O)N[C@H](CCSC)C(N)=O)C(C)C [WEYMVm-NH2, Trp-Glu-Tyr-Met-Val-D-Met-NH2] (H-WEYMV[dM]-NH2; N-terminus assumed) | – | 52.9 ± 12.78 nmol/10^6 cells | 35.3 ± 2.88 nmol/10^6 cells | superoxide generating activity (human neutrophils): stimulated superoxide generation
6 | CSCC[C@H](NC(=O)[C@H](Cc1ccc(O)cc1)NC(=O)[C@H](Cc1c[nH]cn1)NC(=O)[C@@H](N)Cc1c[nH]c2ccccc12)C(=O)N[C@H](C(=O)N[C@H](CCSC)C(N)=O)C(C)C [WHYMVm-NH2, Trp-His-Tyr-Met-Val-D-Met-NH2] (H-WHYMV[dM]-NH2; N-terminus assumed) | – | 20.7 ± 7.85 nmol/10^6 cells | 20.7 ± 7.85 nmol/10^6 cells | [Ca^2+]i increasing activity (FPR): more improved affinity for the FPR against the peptide WKYMVm
7 | CSCC[C@H](NC(=O)[C@H](CC(=O)O)NC(=O)[C@H](CCCCN)NC(=O)[C@@H](N)Cc1c[nH]c2ccccc12)C(=O)N[C@H](C(=O)N[C@H](CCSC)C(N)=O)C(C)C [WKDMVm-NH2, Trp-Lys-Asp-Met-Val-D-Met-NH2] (H-WKDMV[dM]-NH2; N-terminus assumed) | – | 16.3 ± 1.67 nmol/10^6 cells | 37.3 ± 2.78 nmol/10^6 cells | EC50 (FPR): 1330 ± 207 nM
8 | CSCC[C@H](NC(=O)[C@H](CCC(=O)O)NC(=O)[C@H](CCCCN)NC(=O)[C@@H](N)Cc1c[nH]c2ccccc12)C(=O)N[C@H](C(=O)N[C@H](CCSC)C(N)=O)C(C)C [WKEMVm-NH2, Trp-Lys-Glu-Met-Val-D-Met-NH2] (H-WKEMV[dM]-NH2; N-terminus assumed) | – | 4.1 ± 0.21 nmol/10^6 cells | 39.2 ± 4.71 nmol/10^6 cells | EC50 (FPR): 1330 ± 88.8 nM
9 | CSCC[C@H](NC(=O)[C@H](Cc1ccccc1)NC(=O)[C@H](CCCCN)NC(=O)[C@@H](N)Cc1c[nH]c2ccccc12)C(=O)N[C@H](C(=O)N[C@H](CCSC)C(N)=O)C(C)C [WKFMVm-NH2, Trp-Lys-Phe-Met-Val-D-Met-NH2] (H-WKFMV[dM]-NH2; N-terminus assumed) | – | 37.3 ± 3.56 nmol/10^6 cells | 60.2 ± 5.57 nmol/10^6 cells | superoxide generating activity (human neutrophils): stimulated superoxide generation; superoxide generation (human neutrophils): more potent activity than WKYMVm; [Ca^2+]i increasing activity (FPRL1): higher affinity to FPRL1; [Ca^2+]i increasing activity (FPR): more improved affinity for the FPR against the peptide WKYMVm
10 | CSCC[C@H](NC(=O)[C@H](Cc1c[nH]cn1)NC(=O)[C@H](CCCCN)NC(=O)[C@@H](N)Cc1c[nH]c2ccccc12)C(=O)N[C@H](C(=O)N[C@H](CCSC)C(N)=O)C(C)C [WKHMVm-NH2, Trp-Lys-His-Met-Val-D-Met-NH2] (H-WKHMV[dM]-NH2; N-terminus assumed) | – | 29.5 ± 7.71 nmol/10^6 cells | 39.3 ± 4.10 nmol/10^6 cells | –
11 | CSCC[C@H](NC(=O)[C@H](Cc1c[nH]c2ccccc12)NC(=O)[C@H](CCCCN)NC(=O)[C@@H](N)Cc1c[nH]c2ccccc12)C(=O)N[C@H](C(=O)N[C@H](CCSC)C(N)=O)C(C)C [WKWMVm-NH2, Trp-Lys-Trp-Met-Val-D-Met-NH2] (H-WKWMV[dM]-NH2; N-terminus assumed) | – | 11.5 ± 0.97 nmol/10^6 cells | 65.0 ± 12.10 nmol/10^6 cells | superoxide generation (human neutrophils): more potent activity than WKYMVm; [Ca^2+]i increasing activity (FPRL1): higher affinity to FPRL1; [Ca^2+]i increasing activity (FPR): more improved affinity for the FPR against the peptide WKYMVm
12 | CSCC[C@H](NC(=O)[C@H](Cc1ccc(O)cc1)NC(=O)[C@H](CCCCN)NC(=O)[C@@H](N)Cc1c[nH]c2ccccc12)C(=O)N[C@@H](Cc1ccc(O)cc1)C(=O)N[C@H](CCSC)C(N)=O [WKYMYm-NH2, Trp-Lys-Tyr-Met-Tyr-D-Met-NH2] (H-WKYMY[dM]-NH2; N-terminus assumed) | – | 25.8 ± 3.89 nmol/10^6 cells | 42.9 ± 3.34 nmol/10^6 cells | [Ca^2+]i increasing activity (FPRL1): higher affinity to FPRL1
13 | CSCC[C@H](NC(=O)[C@@H](N)Cc1ccc(O)cc1)C(=O)N[C@H](C(=O)N[C@H](CCSC)C(N)=O)C(C)C [YMVm-NH2, Tyr-Met-Val-D-Met-NH2] (H-YMV[dM]-NH2; N-terminus assumed) | – | 30.2 ± 2.74 nmol/10^6 cells | 41.8 ± 3.46 nmol/10^6 cells | –
14 | Trp-Lys-Tyr-Met-(Phe/Trp)-D-Met-NH2 [WKYM(F/W)m-NH2] | – | 6.1 ± 0.77 nmol/10^6 cells | 45.6 ± 7.76 nmol/10^6 cells | [Ca^2+]i increasing activity (FPRL1): higher affinity to FPRL1
15 | WKYMV-NH2 [WKYMV-NH2, Trp-Lys-Tyr-Met-Val-NH2] | inactive | 9.2 ± 0.55 nmol/10^6 cells | 25.6 ± 2.20 nmol/10^6 cells | –
16 | WKYMVG-NH2 [WKYMVG-NH2, Trp-Lys-Tyr-Met-Val-Gly-NH2] | inactive | 4.4 ± 0.54 nmol/10^6 cells | 27.3 ± 1.40 nmol/10^6 cells | –
17 | WKYMVV-NH2 [WKYMVV-NH2, Trp-Lys-Tyr-Met-Val-Val-NH2] | inactive | 5.0 ± 0.21 nmol/10^6 cells | 36.3 ± 2.29 nmol/10^6 cells | –
18 | WKYMVW-NH2 [WKYMVW-NH2, Trp-Lys-Tyr-Met-Val-Trp-NH2] | inactive | 11.5 ± 1.62 nmol/10^6 cells | 56.8 ± 4.60 nmol/10^6 cells | superoxide generation (human neutrophils): more potent activity than WKYMVm
